From BindingDB's records for patent US20250326732 (Pretzel Therapeutics, 2025) come the findings set out here.

The target of the experiment is DNA-directed RNA polymerase, mitochondrial (Homo sapiens, UniProt O00411). In words: Biological/Biochemical Evaluation. On the procedure: The ability of some compounds of the present invention to inhibit POLRMT were determined in a homogeneous TR-FRET Assay using high-throughput screening in a 384-well plate format. […] Detection of the product is facilitated by hybridization of two DNA-oligonucleotide probes to specific and adjacent sequences within the RNA product sequence. Upon annealing of the probes, two fluorophores are coupled directly to an acceptor nucleotide probe (ATTO647, 5′), or introduced via a coupled streptavidin with a biotinylated donor nucleotide probe (Europium cryptate) that is brought into sufficient proximity to serve as a fluorescence-donor-acceptor pair. […] The DNA template is restriction linearized proximal to the promotor 3′-end (pUC-LSP). […] No nucleotide triphosphate mix is added to negative control samples. Microplates with compounds to be tested in the assay are prepared from 10 mM compound stocks in 100% DMSO, equal amounts of DMSO without any compound are added to positive control and negative control samples.

The structures appear in SMILES notation.

DNA-directed RNA polymerase, mitochondrial, sequence (O00411 whole entry): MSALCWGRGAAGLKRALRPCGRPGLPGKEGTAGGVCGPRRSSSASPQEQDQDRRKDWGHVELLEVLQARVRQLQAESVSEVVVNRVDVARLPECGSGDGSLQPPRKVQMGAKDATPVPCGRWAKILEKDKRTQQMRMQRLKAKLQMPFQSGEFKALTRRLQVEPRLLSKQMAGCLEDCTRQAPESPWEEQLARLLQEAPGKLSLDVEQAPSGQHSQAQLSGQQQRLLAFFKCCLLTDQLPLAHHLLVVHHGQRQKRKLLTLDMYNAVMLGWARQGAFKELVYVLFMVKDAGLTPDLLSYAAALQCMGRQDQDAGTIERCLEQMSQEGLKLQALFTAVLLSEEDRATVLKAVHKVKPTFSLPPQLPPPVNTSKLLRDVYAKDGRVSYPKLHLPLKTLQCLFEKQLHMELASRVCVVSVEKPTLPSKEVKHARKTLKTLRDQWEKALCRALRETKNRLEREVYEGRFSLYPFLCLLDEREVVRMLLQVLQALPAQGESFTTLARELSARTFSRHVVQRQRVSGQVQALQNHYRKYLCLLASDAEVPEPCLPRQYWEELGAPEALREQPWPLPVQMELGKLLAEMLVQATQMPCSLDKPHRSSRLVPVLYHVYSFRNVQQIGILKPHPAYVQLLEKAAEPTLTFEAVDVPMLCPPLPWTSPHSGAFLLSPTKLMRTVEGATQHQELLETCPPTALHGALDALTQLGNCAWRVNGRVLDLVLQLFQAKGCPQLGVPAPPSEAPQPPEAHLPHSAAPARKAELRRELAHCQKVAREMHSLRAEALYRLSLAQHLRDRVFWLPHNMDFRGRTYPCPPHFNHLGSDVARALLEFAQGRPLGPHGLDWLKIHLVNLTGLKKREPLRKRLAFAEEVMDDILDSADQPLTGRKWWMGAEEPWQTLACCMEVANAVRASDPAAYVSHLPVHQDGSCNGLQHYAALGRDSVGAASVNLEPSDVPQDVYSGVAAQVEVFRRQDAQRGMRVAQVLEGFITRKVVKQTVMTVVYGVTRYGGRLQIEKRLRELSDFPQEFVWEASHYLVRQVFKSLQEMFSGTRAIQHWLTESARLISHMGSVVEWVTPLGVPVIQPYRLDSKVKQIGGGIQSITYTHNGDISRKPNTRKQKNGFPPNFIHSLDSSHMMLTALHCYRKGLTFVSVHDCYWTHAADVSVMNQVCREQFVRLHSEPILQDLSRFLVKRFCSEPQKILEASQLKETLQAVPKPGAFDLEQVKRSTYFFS

In the case of `CC(=Cc1ccc2c(-c3ccccc3C)cc(=O)oc2c1)C(=O)N(C)C` [US20250326732, Example 64], the IC50 amounted to 0.3 µM. This lies in the sub-micromolar range.

In the case of `CC(=Cc1ccc2c(-c3ccccc3C)cc(=O)oc2c1)C(=O)N(C)C` [US20250326732, Example 65], the IC50 was found to be 17 µM. This IC50 lies about 57-fold higher than the previous one.

The compound `CNC(=O)C(C)=Cc1ccc2c(-c3ccccc3C)cc(=O)oc2c1` [US20250326732, Example 66] had a concentration for half-maximal inhibition (IC50) of 0.5 µM. This IC50 is about 34-fold lower than that of the compound before.

In turn, `CNC(=O)C(C)=Cc1ccc2c(-c3ccccc3C)cc(=O)oc2c1` [US20250326732, Example 67] came in with an IC50 of 6 µM.

For the compound `CC(=Cc1ccc2c(-c3ccccc3C)cc(=O)oc2c1)C(N)=O` [US20250326732, Example 68], the IC50 amounted to 0.6 µM. This IC50 lies about 10-fold lower than the previous one.

In turn, `CN(C=CC(N)=O)c1ccc2c(-c3ccc(F)cc3Cl)cc(=O)oc2c1` [US20250326732, Example 137] displayed an IC50 of 0.9 µM.

For `C=C(Nc1ccc2c(-c3ccccc3C)cc(=O)oc2c1)C(N)=O` [US20250326732, Example 189], half-maximal inhibition (IC50) was put at 0.9 µM.

Compound `COC=C(Nc1ccc2c(-c3ccccc3)cc(=O)oc2c1)C(N)=O` [US20250326732, Example 198] displayed an IC50 of 2 µM.

`COC=C(Cc1ccc2c(-c3ccccc3C)cc(=O)oc2c1)C(N)=O` [US20250326732, Example 207]: the midpoint of inhibition, the IC50, lay at 17 µM. This IC50 is about 8.5-fold higher than that of the compound before.

For `COC=C(Cc1ccc2c(-c3ccccc3C)cc(=O)oc2c1)C(N)=O` [US20250326732, Example 208], the midpoint of inhibition, the IC50, lay at 3 µM.
